From patent US8674113B2, “Compounds” (Boehringer Ingelheim International GmbH, priority 2010, dated 2014)
pIC50: −log10 of the molar value.

Legend:
[1] = biological target: recombinant human mPGES-1 (Homo sapiens (Human), UniProt O14684); assay: mPGES-1 enzyme assay (HTRF detection of PGE2); type: biochemical; conditions: recombinant human mPGES-1 microsomes, PGH2 2 μM, 60 seconds; read-out: mPGES-1 inhibitory effect IC50 in the enzyme assay
How it was run: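 Microsomes from E. coli expressing recombinant human mPGES-1 (~0.5 μg protein/well) in 0.1 M phosphate pH 7.4 with 2.5 mM GSH, pre-incubated with compound 25 min at room temperature. PGH2 (2 μM final) added, reaction stopped with FeCl2 after 60 s; PGE2 quantified by HTRF (665/620 ratio) against a calibration curve, IC50 by nonlinear regression after background subtraction.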

mPGES-1 in A549 cells = mPGES-1 in A549 cells (Homo sapiens (Human), UniProt O14684); assay: A549 cell-based assay (PGE2 formation, 50% human serum); conditions: IL-1β 5 ng/ml, 10 nM arachidonic acid, 20-24 h, read-out: mPGES-1 inhibitory effect IC50 in the cell assay
How it was run: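 A549 cells in F-12K with 50% human serum were stimulated 20-24 h with 5 ng/ml IL-1β and 10 nM arachidonic acid in presence of compound or vehicle. PGE2 in the cell-free medium was measured by HTRF, normalised to vehicle (100%). IC50 from 6-8 point titrations.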

Chain of recombinant human mPGES-1 (O14684 whole entry): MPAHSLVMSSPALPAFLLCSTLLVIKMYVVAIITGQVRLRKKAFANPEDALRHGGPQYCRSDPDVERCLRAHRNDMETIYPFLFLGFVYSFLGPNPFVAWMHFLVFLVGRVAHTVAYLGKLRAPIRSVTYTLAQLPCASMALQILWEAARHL
Chain of mPGES-1 in A549 cells (O14684 whole entry): as above

| Structure (SMILES) | pIC50 [1] | pIC50 (mPGES-1 in A549 cells) |
| --- | --- | --- |
| Cn1c(Nc2c(Cl)ccc(CNC(=O)C(C)(C)C)c2Cl)nc2cc(C(=O)N[C@H]3CC[C@H](C(F)(F)F)CC3)c(N3C[C@@H]4C[C@H]3CO4)cc21 [Example 129] | 8.52 | 8.30 |
| Cn1c(Nc2c(Cl)ccc(CNC(=O)C(C)(C)C)c2Cl)nc2cc(C(=O)N[C@H]3CC[C@H](C(F)(F)F)CC3)c(N3CCS(=O)(=O)CC3)cc21 [Example 130] | 8.70 | 8.15 |
| Cn1c(Nc2c(Cl)ccc(CNC(=O)C(C)(C)C)c2Cl)nc2cc(C(=O)N[C@H]3CC[C@H](C(F)(F)F)CC3)c(N3CCNC(C(F)(F)F)C3)cc21 (stereo partly drawn) [Example 131] | 8.70 | 9.00 |
| Cn1c(Nc2c(Cl)ccc(CNC(=O)C(C)(C)C)c2Cl)nc2cc(C(=O)N[C@H]3CC[C@H](C(F)(F)F)CC3)c(N3CCN(CC(F)(F)F)CC3)cc21 [Example 132] | 8.30 | 8.82 |
| Cn1c(Nc2c(Cl)ccc(CNC(=O)C(C)(C)C)c2Cl)nc2cc(C(=O)N[C@H]3CC[C@H](C(F)(F)F)CC3)c(N3CCn4ncnc4C3)cc21 [Example 133] | 8.52 | 8.00 |
| Cn1c(Nc2c(Cl)ccc(CNC(=O)C(C)(C)C)c2Cl)nc2cc(C(=O)N[C@H]3CC[C@H](C(F)(F)F)CC3)c(N3CC4CCC(C3)O4)cc21 [Example 134] | 8.70 | > 9.00 |
| Cn1c(Nc2c(Cl)ccc(CNC(=O)C(C)(C)C)c2Cl)nc2cc(C(=O)NCCC(F)(F)F)c(N3CC4CC4C3)cc21 (stereo not drawn) [Example 135] | 8.52 | 8.30 |
| Cn1c(Nc2c(Cl)ccc(CNC(=O)C(C)(C)C)c2Cl)nc2cc(C(=O)Nc3ccc(OC(F)(F)F)cc3)c(N3CCCC(C(F)(F)F)C3)cc21 (stereo not drawn) [Example 136] | 8.52 | 9.00 |
| CN(CC(F)F)c1cc2c(cc1C(=O)Nc1ccc(OC(F)(F)F)cc1)nc(Nc1c(Cl)ccc(CNC(=O)C(C)(C)C)c1Cl)n2C [Example 137] | 8.52 | > 9.00 |
| Cn1c(Nc2c(Cl)ccc(CNC(=O)C(C)(C)C)c2F)nc2cc(C(=O)Nc3ccc(OC(F)(F)F)cc3)c(N3CC[C@@H](F)C3)cc21 [Example 138] | 8.70 | 8.52 |
| Cn1c(Nc2c(Cl)ccc(CNC(=O)C(C)(C)C)c2Cl)nc2cc(C(=O)Nc3ccc(OC(F)(F)F)cc3)c(N3CC[C@H](F)C3)cc21 [Example 139] | 8.52 | > 9.00 |
| Cn1c(Nc2c(Cl)ccc(CNC(=O)C(C)(C)F)c2Cl)nc2cc(C(=O)Nc3ccc(OC(F)(F)F)cc3)c(N3CCC(F)(F)CC3)cc21 [Example 140] | 8.70 | 8.30 |
| Cn1c(Nc2c(Cl)ccc(CNC(=O)C(C)(C)C)c2Cl)nc2cc(C(=O)Nc3ccc(OC(F)(F)F)cc3)c(N3CCOCC3)cc21 [Example 141] | 8.70 | 9.00 |
| Cc1c(N2CC3CC3C2)c(C(=O)N[C@H]2CC[C@H](C(F)(F)F)CC2)cc2nc(Nc3c(Cl)ccc(CNC(=O)C(C)(C)C)c3Cl)n(C)c12 (stereo partly drawn) [Example 144, N-(trans-4-Trifluoromethyl-cyclohexyl)-2-{2,6-dichloro-3-[(2,2-dimethyl-propionylamino)-methyl]-phenylamino}-6-[3-aza-bicyclo[3.1.0]hex-3-yl]-1,7-dimethyl-1H-benzimidazole-5-carboxylic acid amide] | 8.30 | 9.00 |
| Cn1c(Nc2c(Cl)ccc(CNC(=O)C(C)(C)C)c2Cl)nc2cc(C(=O)N[C@H]3CC[C@H](C(F)(F)F)CC3)c(N3CC[C@@H](F)C3)c(F)c21 [Example 145, (R)—N-(trans-4-Trifluoromethyl-cyclohexyl)-2-{2,6-dichloro-3-[(2,2-dimethyl-propionylamino)-methyl]-phenylamino}-6-[3-fluoro-pyrrolidinyl]-1-methyl-7-fluoro-1H-benzimidazole-5-carboxylic acid amide] | 8.52 | 8.60 |
| Cn1c(Nc2c(Cl)ccc(CNC(=O)C(C)(C)F)c2Cl)nc2cc(C(=O)NCCC(F)(F)F)c(N3CCC(O)CC3)cc21 [Example 148] | 8.52 | 7.70 |
| CN(c1cc2c(cc1C(=O)NCCC(F)(F)F)nc(Nc1c(Cl)ccc(CNC(=O)C(C)(C)F)c1Cl)n2C)C1CCC1 [Example 149] | 8.52 | 8.52 |
| Cn1c(Nc2c(Cl)ccc(CNC(=O)C(C)(C)F)c2Cl)nc2cc(C(=O)NCCC(F)(F)F)c(N3CCCC(C(F)(F)F)C3)cc21 (stereo not drawn) [Example 150] | 8.70 | 8.70 |
| Cn1c(Nc2c(Cl)ccc(CNC(=O)C(C)(C)F)c2Cl)nc2cc(C(=O)Nc3ccc(F)c(Cl)c3)c(N3CCC(F)(F)C3)cc21 [Example 154] | 8.70 | > 9.00 |
| Cn1c(Nc2c(Cl)ccc(CNC(=O)C3(C)CC3)c2Cl)nc2cc(C(=O)Nc3ccc(OC(F)(F)F)cc3)c(N3CC[C@@H](F)C3)cc21 [Example 156] | 8.70 | 8.70 |
| Cn1c(Nc2c(Cl)ccc(CNC(=O)C(C)(C)F)c2Cl)nc2cc(C(=O)Nc3ccc(F)c(Cl)c3)c(N3CCC(C(F)(F)F)CC3)cc21 [Example 231, N-(3-Chloro-4-fluoro-phenyl)-2-{2,6-dichloro-3-[(2-fluoro-2-methyl-propionylamino)-methyl]-phenylamino}-6-[4-trifluoromethyl-piperidinyl]-1-methyl-1H-benzimidazole-5-carboxylic acid amide] | 8.70 | 8.96 |

Further lines, results first:

| pIC50 [1] | pIC50 (mPGES-1 in A549 cells) | Structure (SMILES) |
| --- | --- | --- |
| 8.40 | 8.40 | Cc1nc(C(F)(F)F)c(CNC(=O)c2cc3nc(Nc4c(Cl)ccc(CNC(=O)C(C)(C)C)c4Cl)n(C)c3cc2N2CCC(C(F)(F)F)CC2)s1 [Example 158] |
| 8.52 | 8.40 | Cn1c(Nc2c(Cl)ccc(CNC(=O)C(C)(C)C)c2Cl)nc2cc(C(=O)Nc3cc(C(C)(C)C)on3)c(N3CCC(C(F)(F)F)CC3)cc21 [Example 159] |
| 8.40 | 8.52 | Cn1c(Nc2c(Cl)ccc(CNC(=O)C(C)(C)C)c2Cl)nc2cc(C(=O)Nc3cc(C(C)(C)CO)no3)c(N3CCC(C(F)(F)F)CC3)cc21 [Example 160] |
| 8.52 | 8.52 | Cn1c(Nc2c(Cl)ccc(CNC(=O)C(C)(C)C)c2Cl)nc2cc(C(=O)Nc3nc(C(F)(F)F)cs3)c(N3CCC(C(F)(F)F)CC3)cc21 [Example 161] |
| 8.52 | 8.70 | Cn1c(Nc2c(Cl)ccc(CNC(=O)C(C)(C)C)c2Cl)nc2cc(C(=O)Nc3nnc(C(C)(C)C)s3)c(N3CCC(C(F)(F)F)CC3)cc21 [Example 162] |
| 8.40 | 8.15 | CC(C)(C)C(=O)NCc1ccc(Cl)c(Nc2nc3cc(C(=O)N[C@H]4CC[C@H](C(F)(F)F)CC4)c(N4CC5CC5C4)cc3n2C2(C(C)(C)O)CC2)c1Cl (stereo partly drawn) [Example 164] |
| 8.70 | 8.52 | CC(C)(O)Cn1c(Nc2c(Cl)ccc(CNC(=O)C(C)(C)C)c2Cl)nc2cc(C(=O)N[C@H]3CC[C@H](C(F)(F)F)CC3)c(N3CCC(C(F)(F)F)CC3)cc21 [Example 165] |
| 8.70 | 7.92 | CC(C)(O)Cn1c(Nc2c(Cl)ccc(CNC(=O)C(C)(C)C)c2Cl)nc2cc(C(=O)Nc3ccc(OC(F)(F)F)cc3)c(N3CCOCC3)cc21 [Example 166, N-(4-Trifluoromethoxy-phenyl)-2-{2,6-dichloro-3-[(2,2-dimethyl-propionylamino)-methyl]-phenylamino}-6-[morpholinyl]-1-(2-hydroxy-2-methyl-propyl)-1H-benzimidazole-5-carboxylic acid amide] |
| 8.70 | 8.70 | Cn1c(Nc2c(Cl)ccc(CNC(=O)c3ccc(O)cc3F)c2Cl)nc2cc(C(=O)NCCC(F)(F)F)c(N3CCC(C(F)(F)F)CC3)cc21 [Example 173] |
| 8.40 | 8.15 | Cn1c(Nc2c(Cl)ccc(CNC(=O)C(C)(C)CO)c2Cl)nc2cc(C(=O)NCCC(F)(F)F)c(N3CCC(C(F)(F)F)CC3)cc21 [Example 175] |
| 8.40 | 7.47 | Cn1c(Nc2c(Cl)ccc(CNC(=O)c3c(N)cccc3Cl)c2Cl)nc2cc(C(=O)NCCC(F)(F)F)c(N3CCC(C(F)(F)F)CC3)cc21 [Example 176] |
| 8.70 | 8.52 | Cn1c(Nc2c(Cl)ccc(CNC(=O)c3ccc(N)cc3Cl)c2Cl)nc2cc(C(=O)NCCC(F)(F)F)c(N3CCC(C(F)(F)F)CC3)cc21 [Example 177] |
| 8.30 | 7.55 | Cn1c(Nc2c(Cl)ccc(CNC(=O)c3cccc(O)c3)c2Cl)nc2cc(C(=O)NCCC(F)(F)F)c(N3CCC(C(F)(F)F)CC3)cc21 [Example 178] |
| 8.70 | < 7.00 | Cn1c(Nc2c(Cl)ccc(CNC(=O)c3c(O)cccc3F)c2Cl)nc2cc(C(=O)NCCC(F)(F)F)c(N3CCC(C(F)(F)F)CC3)cc21 [Example 179] |
| 8.70 | 8.15 | Cn1c(Nc2c(Cl)ccc(CNC(=O)c3nccs3)c2Cl)nc2cc(C(=O)NCCC(F)(F)F)c(N3CCC(C(F)(F)F)CC3)cc21 [Example 182] |
| 8.77 | 8.85 | Cn1c(Nc2c(Cl)ccc(CNC(=O)C(C)(C)C(F)(F)F)c2Cl)nc2cc(C(=O)Nc3ccc(F)c(Cl)c3)c(N3CCC(C(F)(F)F)CC3)cc21 [Example 232] |
| 8.41 | 9.00 | Cn1c(Nc2c(Cl)ccc(CNC(=O)[C@@](C)(O)C(F)(F)F)c2Cl)nc2cc(C(=O)Nc3ccc(F)c(Cl)c3)c(N3CCC(C(F)(F)F)CC3)cc21 [Example 233] |
| 8.51 | 8.10 | Cn1c(Nc2c(Cl)ccc(CNC(=O)[C@](C)(O)C(F)(F)F)c2Cl)nc2cc(C(=O)Nc3ccc(F)c(Cl)c3)c(N3CCC(C(F)(F)F)CC3)cc21 [Example 234] |
